Source: ChEMBL document CHEMBL6134788, “Development of naphthalimide hydrazide derivatives as potent antibacterial agents against carbapenem-resistant A. baumannii” (RSC Med Chem, 2024)
In brackets after ≈: the same amount, converted by molar mass.

Assays:
Acinetobacter baumannii [1] = assay: Antibacterial activity against multi-drug resistant Acinetobacter baumannii clinical isolate 8 assessed as inhibition of bacterial growth incubated for 16 to 18 hrs by CLSI protocol based method; assay type: functional; details: time 16-18 hrs, read-out: MIC100
Acinetobacter baumannii [2] = assay: Antibacterial activity against multi-drug resistant Acinetobacter baumannii clinical isolate 9 assessed as inhibition of bacterial growth incubated for 16 to 18 hrs by CLSI protocol based method; assay type: functional; details: time 16-18 hrs, read-out: MIC100
Acinetobacter baumannii [3] = assay: Antibacterial activity against multi-drug resistant Acinetobacter baumannii WL-136 assessed as inhibition of bacterial growth incubated for 16 to 18 hrs by CLSI protocol based method; assay type: functional; details: time 16-18 hrs, read-out: MIC100
Acinetobacter baumannii [4] = assay: Antibacterial activity against multi-drug resistant Acinetobacter baumannii 5-143 assessed as inhibition of bacterial growth incubated for 16 to 18 hrs by CLSI protocol based method; assay type: functional; details: time 16-18 hrs, read-out: MIC100
Acinetobacter baumannii [5] = assay: Antibacterial activity against multi-drug resistant Acinetobacter baumannii clinical isolate 3 assessed as inhibition of bacterial growth incubated for 16 to 18 hrs by CLSI protocol based method; assay type: functional; details: time 16-18 hrs, read-out: MIC100
Acinetobacter baumannii [6] = assay: Antibacterial activity against multi-drug resistant Acinetobacter baumannii Naval-18 assessed as inhibition of bacterial growth incubated for 16 to 18 hrs by CLSI protocol based method; assay type: functional; details: time 16-18 hrs, read-out: MIC100
Acinetobacter baumannii [7] = assay: Antibacterial activity against multi-drug resistant Acinetobacter baumannii Naval-17 assessed as inhibition of bacterial growth incubated for 16 to 18 hrs by CLSI protocol based method; assay type: functional; details: time 16-18 hrs, read-out: MIC100
Acinetobacter baumannii [8] = assay: Antibacterial activity against multi-drug resistant Acinetobacter baumannii clinical isolate 10 assessed as inhibition of bacterial growth incubated for 16 to 18 hrs by CLSI protocol based method; assay type: functional; details: time 16-18 hrs, read-out: MIC100
Acinetobacter baumannii [9] = assay: Antibacterial activity against multi-drug resistant Acinetobacter baumannii clinical isolate 12 assessed as inhibition of bacterial growth incubated for 16 to 18 hrs by CLSI protocol based method; assay type: functional; details: time 16-18 hrs, read-out: MIC100
Acinetobacter baumannii [10] = assay: Antibacterial activity against multi-drug resistant Acinetobacter baumannii 5-032 assessed as inhibition of bacterial growth incubated for 16 to 18 hrs by CLSI protocol based method; assay type: functional; details: time 16-18 hrs, read-out: MIC100
Acinetobacter baumannii [11] = assay: Antibacterial activity against multi-drug resistant Acinetobacter baumannii clinical isolate 1 assessed as inhibition of bacterial growth incubated for 16 to 18 hrs by CLSI protocol based method; assay type: functional; details: time 16-18 hrs, read-out: MIC100
Acinetobacter baumannii [12] = assay: Antibacterial activity against Acinetobacter baumannii ATCC 17978 assessed as inhibition of bacterial growth incubated for 16 to 18 hrs by CLSI protocol based method; assay type: functional; details: time 16-18 hrs, read-out: MIC100
Acinetobacter baumannii [13] = assay: Antibacterial activity against multi-drug resistant Acinetobacter baumannii clinical isolate 6 assessed as inhibition of bacterial growth incubated for 16 to 18 hrs by CLSI protocol based method; assay type: functional; details: time 16-18 hrs, read-out: MIC100
Acinetobacter baumannii [14] = assay: Antibacterial activity against multi-drug resistant Acinetobacter baumannii WL-487 assessed as inhibition of bacterial growth incubated for 16 to 18 hrs by CLSI protocol based method; assay type: functional; details: time 16-18 hrs, read-out: MIC100
Acinetobacter baumannii [15] = assay: Antibacterial activity against carbapenem-resistant Acinetobacter baumannii BAA 1605 assessed as inhibition of bacterial growth incubated for 16 to 18 hrs by CLSI protocol based method; assay type: functional; details: time 16-18 hrs
Acinetobacter baumannii [16] = assay: Antibacterial activity against multi-drug resistant Acinetobacter baumannii clinical isolate 11 assessed as inhibition of bacterial growth incubated for 16 to 18 hrs by CLSI protocol based method; assay type: functional; details: time 16-18 hrs, read-out: MIC100
Staphylococcus aureus = assay: Antibacterial activity against Staphylococcus aureus ATCC 29213 assessed as inhibition of bacterial growth incubated for 16 to 18 hrs by CLSI protocol based method; assay type: functional; details: time 16-18 hrs, read-out: MIC100
Acinetobacter baumannii [17] = assay: Antibacterial activity against multi-drug resistant Acinetobacter baumannii clinical isolate 4 assessed as inhibition of bacterial growth incubated for 16 to 18 hrs by CLSI protocol based method; assay type: functional; details: time 16-18 hrs, read-out: MIC100
[18] = Cytotoxicity against African green monkey Vero cells assessed as reduction in cell viability incubated for 72 hrs by MTT assay; assay type: toxicity, cell-based; details: chlorocebus sabaeus
Acinetobacter baumannii [19] = assay: Antibacterial activity against multi-drug resistant Acinetobacter baumannii clinical isolate 2 assessed as inhibition of bacterial growth incubated for 16 to 18 hrs by CLSI protocol based method; assay type: functional; details: time 16-18 hrs, read-out: MIC100
Acinetobacter baumannii [20] = assay: Antibacterial activity against multi-drug resistant Acinetobacter baumannii clinical isolate 7 assessed as inhibition of bacterial growth incubated for 16 to 18 hrs by CLSI protocol based method; assay type: functional; details: time 16-18 hrs, read-out: MIC100
Acinetobacter baumannii [21] = assay: Antibacterial activity against multi-drug resistant Acinetobacter baumannii 5-109 assessed as inhibition of bacterial growth incubated for 16 to 18 hrs by CLSI protocol based method; assay type: functional; details: time 16-18 hrs, read-out: MIC100
Escherichia coli = assay: Antibacterial activity against Escherichia coli ATCC 25922 assessed as inhibition of bacterial growth incubated for 16 to 18 hrs by CLSI protocol based method; assay type: functional; details: time 16-18 hrs, read-out: MIC100
Acinetobacter baumannii [22] = assay: Antibacterial activity against multi-drug resistant Acinetobacter baumannii 5-189 assessed as inhibition of bacterial growth incubated for 16 to 18 hrs by CLSI protocol based method; assay type: functional; details: time 16-18 hrs, read-out: MIC100
Klebsiella pneumoniae = assay: Antibacterial activity against Klebsiella pneumoniae BAA 1705 assessed as inhibition of bacterial growth incubated for 16 to 18 hrs by CLSI protocol based method; assay type: functional; details: time 16-18 hrs, read-out: MIC100
Acinetobacter baumannii [23] = assay: Antibacterial activity against multi-drug resistant Acinetobacter baumannii NR-17777 assessed as inhibition of bacterial growth incubated for 16 to 18 hrs by CLSI protocol based method; assay type: functional; details: time 16-18 hrs, read-out: MIC100
Acinetobacter baumannii [24] = assay: Antibacterial activity against multi-drug resistant Acinetobacter baumannii clinical isolate 5 assessed as inhibition of bacterial growth incubated for 16 to 18 hrs by CLSI protocol based method; assay type: functional; details: time 16-18 hrs, read-out: MIC100
Acinetobacter baumannii [25] = assay: Antibacterial activity against multi-drug resistant Acinetobacter baumannii Naval-81 assessed as inhibition of bacterial growth incubated for 16 to 18 hrs by CLSI protocol based method; assay type: functional; details: time 16-18 hrs, read-out: MIC100
[26] = Selectivity index, ratio of CC50 for cytotoxicity against African green monkey VERO cells to MIC for antibacterial activity against carbapenem-resistant Acinetobacter baumannii BAA 1605 assessed as inhibition of bacterial growth; assay type: toxicity, cell-based; details: read-out: Selectivity Index
Acinetobacter baumannii [27] = assay: Antibacterial activity against multi-drug resistant Acinetobacter baumannii H72721 assessed as inhibition of bacterial growth incubated for 16 to 18 hrs by CLSI protocol based method; assay type: functional; details: time 16-18 hrs, read-out: MIC100
Pseudomonas aeruginosa = assay: Antibacterial activity against Pseudomonas aeruginosa ATCC 27853 assessed as inhibition of bacterial growth incubated for 16 to 18 hrs by CLSI protocol based method; assay type: functional; details: time 16-18 hrs, read-out: MIC100
Acinetobacter baumannii [28] = assay: Antibacterial activity against multi-drug resistant Acinetobacter baumannii BC-5 assessed as inhibition of bacterial growth incubated for 16 to 18 hrs by CLSI protocol based method; assay type: functional; details: time 16-18 hrs, read-out: MIC100

SMILES | MIC (Acinetobacter baumannii [1]) | MIC (Acinetobacter baumannii [2]) | MIC (Acinetobacter baumannii [3]) | MIC (Acinetobacter baumannii [4]) | MIC (Acinetobacter baumannii [5]) | MIC (Acinetobacter baumannii [6]) | MIC (Acinetobacter baumannii [7]) | MIC (Acinetobacter baumannii [8]) | MIC (Acinetobacter baumannii [9]) | MIC (Acinetobacter baumannii [10]) | MIC (Acinetobacter baumannii [11]) | MIC (Acinetobacter baumannii [12]) | MIC (Acinetobacter baumannii [13]) | MIC (Acinetobacter baumannii [14]) | MIC (Acinetobacter baumannii [15]; read-out: MIC100) | MIC (Acinetobacter baumannii [16]) | MIC (Staphylococcus aureus) | MIC (Acinetobacter baumannii [17]) | CC50 at 72 h [18] | MIC (Acinetobacter baumannii [19]) | further results
C[C@H]1COc2c(N3CCN(C)CC3)c(F)cc3c(=O)c(C(=O)O)cn1c23 [LEVOFLOXACIN ANHYDROUS] | 4 mg/L (≈ 11.1 µM) | 4 mg/L (≈ 11.1 µM) | 0.25 mg/L (≈ 0.692 µM) | 1 mg/L (≈ 2.77 µM) | 64 mg/L (≈ 177 µM) | 4 mg/L (≈ 11.1 µM) | 16 mg/L (≈ 44.3 µM) | > 64 mg/L | 4 mg/L (≈ 11.1 µM) | 0.25 mg/L (≈ 0.692 µM) | 32 mg/L (≈ 88.6 µM) | 0.03 mg/L (≈ 0.083 µM) | 4 mg/L (≈ 11.1 µM) | 0.125 mg/L (≈ 0.346 µM) | 4 mg/L (≈ 11.1 µM) | 64 mg/L (≈ 177 µM) | 0.25 mg/L (≈ 0.692 µM) | > 64 mg/L | > 400 mg/L | > 64 mg/L | 
O=C(CCN1C(=O)c2cccc3cccc(c23)C1=O)NNc1ccc(Cl)cc1 | 1 mg/L (≈ 2.54 µM) | 1 mg/L (≈ 2.54 µM) | 1 mg/L (≈ 2.54 µM) | 2 mg/L (≈ 5.08 µM) | 0.5 mg/L (≈ 1.27 µM) | 1 mg/L (≈ 2.54 µM) | 1 mg/L (≈ 2.54 µM) | 2 mg/L (≈ 5.08 µM) | 1 mg/L (≈ 2.54 µM) | 2 mg/L (≈ 5.08 µM) | 1 mg/L (≈ 2.54 µM) | 1 mg/L (≈ 2.54 µM) | 2 mg/L (≈ 5.08 µM) | 1 mg/L (≈ 2.54 µM) | 0.5 mg/L (≈ 1.27 µM) | 2 mg/L (≈ 5.08 µM) | > 64 mg/L | 1 mg/L (≈ 2.54 µM) | > 100 mg/L | 1 mg/L (≈ 2.54 µM) | MIC (Acinetobacter baumannii [20]): 1 mg/L (≈ 2.54 µM); MIC (Acinetobacter baumannii [21]): 2 mg/L (≈ 5.08 µM); MIC (Escherichia coli): > 64 mg/L; MIC (Acinetobacter baumannii [22]): 2 mg/L (≈ 5.08 µM); MIC (Klebsiella pneumoniae): > 64 mg/L; MIC (Acinetobacter baumannii [23]): 2 mg/L (≈ 5.08 µM); MIC (Acinetobacter baumannii [24]): 2 mg/L (≈ 5.08 µM); MIC (Acinetobacter baumannii [25]): 1 mg/L (≈ 2.54 µM); selectivity ratio [26]: > 200; MIC (Acinetobacter baumannii [27]): 1 mg/L (≈ 2.54 µM); MIC (Pseudomonas aeruginosa): > 64 mg/L; MIC (Acinetobacter baumannii [28]): 1 mg/L (≈ 2.54 µM)
N#Cc1ccc(NNC(=O)CCN2C(=O)c3cccc4cccc(c34)C2=O)cc1 | 2 mg/L (≈ 5.2 µM) | 2 mg/L (≈ 5.2 µM) | 2 mg/L (≈ 5.2 µM) | 1 mg/L (≈ 2.6 µM) | 1 mg/L (≈ 2.6 µM) | 2 mg/L (≈ 5.2 µM) | 2 mg/L (≈ 5.2 µM) | 8 mg/L (≈ 20.8 µM) | 2 mg/L (≈ 5.2 µM) | 2 mg/L (≈ 5.2 µM) | 1 mg/L (≈ 2.6 µM) | 2 mg/L (≈ 5.2 µM) | 4 mg/L (≈ 10.4 µM) | 4 mg/L (≈ 10.4 µM) | 0.5 mg/L (≈ 1.3 µM) | 2 mg/L (≈ 5.2 µM) | > 64 mg/L | 2 mg/L (≈ 5.2 µM) | > 100 mg/L | 2 mg/L (≈ 5.2 µM) | MIC (Acinetobacter baumannii [20]): 1 mg/L (≈ 2.6 µM); MIC (Acinetobacter baumannii [21]): 2 mg/L (≈ 5.2 µM); MIC (Escherichia coli): > 64 mg/L; MIC (Acinetobacter baumannii [22]): 4 mg/L (≈ 10.4 µM); MIC (Klebsiella pneumoniae): > 64 mg/L; MIC (Acinetobacter baumannii [23]): 2 mg/L (≈ 5.2 µM); MIC (Acinetobacter baumannii [24]): 4 mg/L (≈ 10.4 µM); MIC (Acinetobacter baumannii [25]): 2 mg/L (≈ 5.2 µM); selectivity ratio [26]: > 200; MIC (Acinetobacter baumannii [27]): 2 mg/L (≈ 5.2 µM); MIC (Pseudomonas aeruginosa): > 64 mg/L; MIC (Acinetobacter baumannii [28]): 2 mg/L (≈ 5.2 µM)
COc1cccc2c1C(=O)c1c(O)c3c(c(O)c1C2=O)C[C@@](O)(C(=O)CO)C[C@@H]3O[C@H]1C[C@H](N)[C@H](O)[C@H](C)O1 [DOXORUBICIN] |  |  |  |  |  |  |  |  |  |  |  |  |  |  |  |  |  |  | < 10 mg/L |  | MIC (Acinetobacter baumannii [15]; read-out: MIC): > 64 mg/L; selectivity ratio [26]: < 1
